For data set [1], the system named is DLD-1 BRCA2−/− cells. Briefly: DLD-1 BRCA2−/− cell proliferation inhibition experiment. Type of data set: cell-based. The conditions noted are these: Homo sapiens, 168 h, 7 d, CellTiter-Glo. On the procedure: 3.1 DLD-1 BRCA2^−/− Cell Proliferation Inhibition Experiment Epithelial cell line DLD-1 BRCA2^−/− from human colorectal adenocarcinoma (Horizon Discovery Ltd., Cat No.: HD105-007) was cultured in an RPMI-1640 medium containing 10% FBS, 1% penicillin-streptomycin solution, 1% L-G and 0.1 mg/mL hygromycin at 37° C. and 5% CO2. By means of cell counting, 1000 DLD-1 BRCA2^−/− cells were seeded into each well of a 96-well plate and cultured overnight. Test compounds (2-fold gradient dilution, starting at the highest dose: 10 μM, a total of 9 gradient concentrations) were added the next day. Moreover, blank control wells containing DMSO at the same concentration were set. The cells were cultured at 37° C. and 5% CO2 for 7 d, CellTiter-Glo® Reagent was then added, and the chemiluminescence values were determined using a microplate reader. The IC50 value was calculated using GraphPad Prism 8 software.
In general terms: Cellular ATP, detected with luciferase, serves as a proxy for viable cell number.

Data set [2] deals with MDA-MB-436 cells. The data set can be described thus: MDA-MB-436 cell proliferation inhibition experiment. It is filed as cell-based. The conditions noted are these: Homo sapiens, 168 h, 7 d, Celltiter Glo. As for the experimental part:
Human breast cancer cell line MDA-MB-436 (supplier: ATCC, Cat #HTB-130) was cultured in an L15 medium containing 10% FBS and 1% penicillin-streptomycin solution at 37° C. and 5% CO2. By means of cell counting, 400 MDA-MB-436 cells were seeded into each well of a 384-well plate and cultured overnight. […] Moreover, blank control wells containing 0.1% DMSO were set. The cells were cultured at 37° C. and 5% CO2 for 7 d, a Celltiter Glo assay kit detection solution was then added, and the chemiluminescence values were determined using a microplate reader. The IC50 value was calculated using GraphPad Prism 8 software.

Data set [3] concerns monolayer MDCK-MDR1 cells. Briefly: Bidirectional permeability evaluation with MDCK-MDR1 cell model. Particulars: 1 μM test compound, 37° C., 2 h. Type of data set: in vitro ADME. On the procedure: In this experiment, monolayer MDCK-MDR1 cells were used and incubated in a 96-well Transwell plate. A transport buffer containing 1 μM test compound was added to an appropriate administration end well on the apical or basal side, and a DMSO-containing transport buffer was added to an appropriate receiving end well. After incubation at 37° C. for 2 h, the cell plate was removed, the samples (50 μL each) were collected from the top and bottom ends and transferred to a new 96-well plate, and the protein was precipitated by subsequently adding acetonitrile. The samples were analyzed using LC-MS/MS and the concentration of the test compound was determined. The concentration data were used to calculate the apparent permeability coefficients of the transport from the apical side to the basal side and from the basal side to the apical side of the monolayer cells so as to calculate the efflux rate. The integrity of the monolayer cells was assessed by the leakage of Lucifer Yellow after 2 h of incubation.

Data set [4] is described as follows: Pharmacokinetic test in mice. Type of data set: in vivo. Particulars: ICR mice, oral administration (1 mg/kg), plasma. As for the experimental part:
An appropriate amount of the test compound was precisely weighed and formulated into a 0.1 mg/mL solution with 30% DMSO and 30% HP-β-CD for intravenous injection, and the test compound was formulated into a 0.1 mg/mL solution with 0.5% MC for intragastric administration. Healthy adult male ICR mice were fasted overnight and then given the test compound via intravenous injection (0.5 mg/kg) and intragastric administration (1 mg/kg). Blood (anticoagulated with heparin sodium) was collected from the forelimb vein at different time points (0.083 h, 0.25 h, 0.5 h, 1 h, 2 h, 4 h, 8 h and 24 h) after administration. The blood samples were separated by centrifugation at 6800 g at 4° C. for 10 min to obtain plasma, and all the samples were stored at −80° C. for later testing. The concentration of the prototype drug in plasma was determined by an LC-MS/MS method, and the main pharmacokinetic parameters were calculated using Phoenix WinNonlin7.0.

We go through seven molecules from patent US20250289800A1, “Selective Parp1 Inhibitor And Application Thereof” (Kangbaida (Sichuan) Biotechnology Co., Ltd., priority 2021, published 2025).

Regarding `CCc1cc2ncc(CN3CCN(c4ccc(F)cn4)CC3)cc2[nH]c1=O` [Compound 3, 3-ethyl-7-((4-(5-fluoropyridin-2-yl)piperazin-1-yl)methyl)-1,5-naphthyridin-2(1H)-one], the half-maximal inhibitory concentration (IC50) (as a rule, the concentration at which inhibition is half-maximal) in data set [1] worked out at 3.3 nM; in data set [2], 11.1 nM.
In turn, `CCc1cc2ncc(CN3CCN(c4ccc(Cl)cn4)CC3)cc2[nH]c1=O` [Compound 10, 7-((4-(5-chloropyridin-2-yl)piperazin-1-yl)methyl)-3-ethyl-1,5-naphthyridin-2(1H)-one] showed a 50% inhibitory concentration (IC50) in data set [2] of 12.1 nM.
As to `CCc1cc2ncc(CN3CCN(c4ccc(C(=O)NC)nc4)CC3)cc2[nH]c1=O` [Comparative example 1], the “MDCK-MDRII Papp (A-B) (10−6, cm/s)” value in data set [3] (apical to basal) was 3.38 10−6, cm/s. Besides, the “MDCK-MDRII Papp (B-A) (10−6, cm/s)” value in data set [3] (basal to apical) is recorded as 43.78 10−6, cm/s. In addition, in data set [4], the “AUC0-t” value worked out at 47560 ng·h/mL; the Cmax (in general, the highest concentration seen after dosing) worked out at 5410 ng/mL; the “T1/2” value is given as 6.25 h.
The molecule `CCc1cc2ncc(CN3CCN(c4ccc(-c5cnn(C)c5)cn4)CC3)cc2[nH]c1=O` [Compound 21, 3-ethyl-7-((4-(5-(1-methyl-1H-pyrazol-4-yl)pyridin-2-yl)piperazin-1-yl)methyl)-1,5-naphthyridin-2(1H)-one] yielded an IC50 in data set [2] of 27.8 nM.
In data set [1], `CCc1cc2ncc(CN3CCN(c4ccc(C#N)nc4)CC3)cc2[nH]c1=O` [Compound 4, 5-(4-((7-ethyl-6-oxo-5,6-dihydro-1,5-naphthyridin-3-yl)methyl)piperazin-1-yl)picolinonitrile] gave an IC50 of 5.4 nM.
Take `CCc1cc2ncc(CN3CCN(c4ccc(C#N)cc4F)CC3)cc2[nH]c1=O` [Compound 1, 4-(4-((7-ethyl-6-oxo-5,6-dihydro-1,5-naphthyridin-3-yl)methyl)piperazin-1-yl)-3-fluorobenzonitrile]: the IC50 in data set [1] worked out at 1.7 nM; in data set [2], 12.2 nM.
In data set [2], `CCc1cc2ncc(CN3CCN(c4ccc(C(F)F)cn4)CC3)cc2[nH]c1=O` [Compound 24, 7-((4-(5-(difluoromethyl)pyridin-2-yl)piperazin-1-yl)methyl)-3-ethyl-1,5-naphthyridin-2(1H)-one] returned an IC50 of 8.3 nM.
